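Test compounds were applied to cells in 96-well plates for 48 hours at 5 doses. Here, GI50 denotes the concentration required for 50% inhibition of growth. TGI marks complete inhibition of growth.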

Some test systems named below: UO-31 renal; HT29 colon; OVCAR-4 ovarian; U251 CNS; OVCAR-8 ovarian; SK-MEL-2 melanoma; MCF7 breast; IGROV1 ovarian; NCI-H226 lung; SR leukemia.
Assay in all cases: NCI anticancer screen, dose series, 48 h

Take `COC(=O)C1=Nc2ccc(F)cc2/C1=C/c1sc(=S)[nH]c1O`: the GI50 was 0.457 µM in the assay on UO-31 renal; 0.559 µM with HT29 colon; 0.692 µM in the assay with OVCAR-4 ovarian; 0.0838 µM in the assay on U251 CNS; 0.202 µM in the assay on OVCAR-8 ovarian; 0.806 µM in the assay on SK-MEL-2 melanoma. The GI50 with MCF7 breast is 0.26 µM; in the assay with IGROV1 ovarian, 0.275 µM; with NCI-H226 lung, 0.959 µM; with SR leukemia, 0.0476 µM. Also, the TGI with UO-31 renal amounted to 5.14 µM; with HT29 colon, 11.9 µM; with OVCAR-4 ovarian it was 23.8 µM; with U251 CNS, 14.2 µM; in the assay with OVCAR-8 ovarian it was 37.7 µM; with SK-MEL-2 melanoma, 41 µM. Further, the TGI in the assay on MCF7 breast was 15 µM; with IGROV1 ovarian, 14.9 µM; in the assay on NCI-H226 lung, 10.3 µM; in the assay on SR leukemia, over 100 µM.
Regarding `Cc1ccc(NC(=O)c2ccc(NC3=C(Cl)C(=O)N(Cc4ccccc4)C3=O)cc2)cc1Cl`, the GI50 in the assay with UO-31 renal was 1.41 µM; in the assay with HT29 colon it was 6.81 µM; in the assay on OVCAR-4 ovarian, 14.7 µM; in the assay on U251 CNS, 3.97 µM; with OVCAR-8 ovarian, 9.96 µM; in the assay on SK-MEL-2 melanoma it was 12.5 µM. For the same compound, the GI50 in the assay with MCF7 breast was 3.3 µM; in the assay with IGROV1 ovarian, 0.49 µM; with NCI-H226 lung, 8.69 µM; in the assay with SR leukemia, 0.864 µM. In addition, the TGI with UO-31 renal worked out at 2.71 µM; in the assay on HT29 colon it was 51.3 µM; in the assay with OVCAR-4 ovarian, 66.5 µM; in the assay on U251 CNS, 17.8 µM; in the assay on OVCAR-8 ovarian, 21.5 µM; in the assay with SK-MEL-2 melanoma, 34.1 µM. Also, the TGI came to 15.4 µM in the assay with MCF7 breast, 2.64 µM in the assay with IGROV1 ovarian, 23.5 µM in the assay with NCI-H226 lung and 2.98 µM with SR leukemia.

The values above are taken from PubChem BioAssay (NCI).
